We go through 12 compounds from patent publication US12195424B2, “Antibiotic compounds” (The General Hospital Corporation, priority 2017, dated 2025).

One series deals with S. aureus strain MW2. The series can be described thus: Minimal inhibitory concentration (MIC) assay. Format: cell-based. The following applies: for antimicrobial activity: S. aureus MW2, in words; for fold decrease in antimicrobial activity (fold higher MIC) vs. parent compound CD437: relative to CD437; for MIC: growing MRSA MW2 cells. An excerpt:
Bacterial strains, growth conditions and persister isolation. Methicillin-resistant S. aureus (MRSA) strain MW2 BAA-1707, the VanA-type vancomycin-resistant S. aureus strain VRS1, 11 clinical S. aureus isolates 8 clinical Enterococcus faecium isolates (including VanB-type VRE isolates, C68 and WB312, and a VanA-type VRE isolate WC196), Klebsiella pneumoniae WGLW2 (BEI Resources, Manassas, VA, USA), Acinetobacter baumannii ATCC 17978, Pseudomonas aeruginosa PA14, and Enterobacter aerogenes ATCC 13048 were used to test antimicrobial activity. S. aureus and E. faecium strains were grown in tryptic soy broth (TSB) (BD, Franklin Lakes, NJ, USA) or brain-heart infusion (BHI) broth (BD, Franklin Lakes, NJ, USA), respectively at 37° C. K. pneumoniae, A. baumannii, P aeruginosa, and E. aerogenes were grown in Luria Bertani (LB) broth (BD, Franklin Lakes, NJ, USA).
(§1) Minimal inhibitory concentration (MIC) assay. The MICs of antibiotics were determined by the standard micro-dilution method recommended by the Clinical and Laboratory Standards Institute. The assay was conducted in triplicate.

Another series relates to MRSA MW2 persisters. The experiment in a line: Persister killing assay. The following applies: Staphylococcus aureus; MRSA MW2 persisters; read-out: MIC against MRSA persisters. Format: cell-based, S. aureus. As to the method: Persister killing assay. […] Persistency of stationary-phase S. aureus VRS1 was evaluated by treating with 100×MIC daptomycin and 100×MIC linezolid, because the strain is resistant to vancomycin, gentamicin, ciprofloxacin, and rifampicin. We prepared persister cells of the 13 S. aureus strains by growing cultures overnight to stationary phase at 37° C. at 225 rpm. The overnight cultures were washed three times with PBS and diluted to ˜5×10^7 ? CFU/ml with the same buffer. 2 ml of the persister suspension containing appropriate concentrations of antibiotics was added to the wells of a 96-well assay block (Corning Costar 3960) and incubated at 37° C., with shaking at 225 rpm. At specific times, 400 μl samples were removed and washed once with PBS to remove the antibiotic. The samples were serially diluted 10^5 fold with PBS and spot-plated onto TSA plates. After incubating the plates overnight (˜18 h) at 37° C., the colonies were counted to enumerate the number of cells. These experiments were conducted in triplicate.

The test system of the next series is human erythrocytes. The experiment in a line: Human blood hemolysis. It counts as cell-based. The following applies: compared with CD437, in words. The method, then: Human blood hemolysis. Hemolytic activity of retinoids on human erythrocytes was evaluated using a previously described method with modifications. 10% human erythrocytes were purchased from Rockland Immunochemicals (Limerick, PA, USA). The erythrocytes were diluted to 4% with PBS, and 100 μl was added to 100 μl of two-fold serial dilutions of compounds in PBS, 0.2% DMSO (negative control), or 2% Triton-X 100 (positive control) in a 96-well plate. The plate was incubated at 37° C. for 1 h and then centrifuged at 500×g for 5 min. 100 μl of the supernatant was transferred to a fresh 96-well plate and absorbance of supernatants was measured at 540 nm. Percent hemolysis was calculated using the following equation: (A540 nm of compound treated sample−A540 nm of 0.1% DMSO treated sample)/(A540 nm of 1% Triton X-100 treated sample−A540 nm of 0.1% DMSO treated sample)×100. HC50 (concentration of compound causing 50% hemolysis) was determined using SigmaPlot 10.0 (Systat Software Inc., San Jose, CA, USA).

For a further series, the system named is rat primary hepatocytes. The series can be described thus: Hepatotoxicity in primary hepatocytes. Format: cell-based. The following applies: 24 h, compared with CD437, in words. The method, then:
Cytotoxicity. Cryopreserved rat and human primary hepatocytes were purchased from the Cell Resource Core at Massachusetts General Hospital (Boston, MA, USA). The hepatocytes were cultured in a collagen sandwiched configuration in 24-well plates, as described previously. Briefly, 4×10^5 live cells were seeded in 24-well plates coated with rat tail collagen type I. Plates were incubated in a humidified 5% CO2 incubator at 37° C. for 4 h to allow cells to attach to the collagen gel. The cells were washed and then cultured in 0.5 ml standard hepatocyte culture medium consisting of pre-warmed Dulbecco's modified Eagle's medium (DMEM) media supplemented with 10% FBS, 0.5 U/ml insulin, 14 ng/ml glucagon, 20 ng/ml EGF, 7.5 μg/ml hydrocortisone and 200 U/ml penicillin-streptomycin. The cell cultures were incubated in a humidified 5% CO2 incubator at 37° C. At 24 h after seeding the cells, a top layer of collagen gel was deposited on the hepatocytes attached to the bottom collagen layer and incubated for additional 24 h. For cytotoxicity tests, HepG2, RPTEC, and NHEK were cultured at 70-80% confluence in tissue culture treated 96-well plates in a volume of 100 μl/well corresponding culture media. […] WST-1 reduction was measured at 450 nm. The percent fluorescence relative to that of the no-treatment control was calculated. […]

The subject of series [1] is Cutibacterium (Propionibacterium) acnes. The experiment in a line: Growth inhibition / MIC against P. acnes. To be noted: in words (FIG. 11). Format: cell-based. The method, then: as §1
More specifically, uptake of SYTOX Green by Cutibacterium (Propionibacterium) acnes cells treated with retinoids CD437 and Analog 2 increased, indicating higher permeability (FIG. 12; individual data points (n=3 biologically independent samples) and means are shown).

Series [2] has the same test system. The series can be described thus: Morphology of treated P. acnes bacteria. Format: cell-based. To be noted: in words (FIG. 13).
The conditions of series [3]: in words; cited from earlier work.
A further series can be described thus: Maximum tolerated dose. Format: in vivo. The following applies: mice, every 12 h for 3 days; Analog 2 10-80 mg/kg i.p., vancomycin 25 mg/kg i.p.; P>0.7. The method, then: Maximum tolerated dose. Six-week-old female CD1 ICR outbred mice (20-25 g) were obtained from Charles River Laboratories (Wilmington, MA, USA). Analog 2 was dissolved in a 1:1 solution of Kolliphor EL (Sigma-Aldrich, St Louis, MO, USA) and ethanol and then diluted 1:10 in saline to a final concentration of 4 mg/ml. Groups of mice (n=6) were treated with 10, 20, 40, 80 mg/kg Analog 2 i.p. or vancomycin (25 mg/kg) every 12 h for 3 days. Control mice were injected with 400 μl of 10% Kolliphor EL/ethanol in saline i.p. every 12 h for 3 days. Mice were closely monitored until they were euthanized at 72 h from the first infection. After euthanizing mice, blood was collected by cardiac puncture. All samples were stored at 4° C. until for analysis. Serum was analyzed for alanine aminotransferase and urea nitrogen content with commercially available kits, following the manufacturer's protocol (Pointe Scientific, Canton, MI, USA). No statistical methods were used to predetermine samples size. The experiments were not randomized, and investigators were not blinded to allocation during experiments and outcome assessment. This study and all experimental protocols were approved by the Rhode Island Hospital Institutional Animal Care and Use Committee (RIH IACUC) and conducted in accordance with the Animal Welfare Act and National Institutes of Health guidelines for animal care and use. Statistical significance among each group was analyzed by one-way ANOVA with post-hoc Tukey test using PASW Statistics 18 (SPSS Inc. Chicago, IL, USA) and GraphPad Prism 7 (GraphPad Software, La Jolla, CA, USA).

[4] abbreviates: Staphylococcus aureus, read-out: MIC.

The MIC is the smallest concentration in the dilution series that meets the test's criterion for growth inhibition.

The structures appear in SMILES notation. Converted amounts (≈) assume the structure as drawn. Like-named read-outs stand apart in the source and are kept apart here.

Turning to `NC(=O)c1ccc2cc(-c3ccc(O)c(C45CC6CC(CC(C6)C4)C5)c3)ccc2c1` [Analog 3, 6-(3-(adamantan-1-yl)-4-hydroxyphenyl)-2-naphthamide], the antimicrobial activity entry with S. aureus strain MW2 is given as “comparatively low”.

Turning to `COc1ccc(-c2ccc3cc(CO)ccc3c2)cc1C12CC3CC(CC(C3)C1)C2` [Analog 6, (6-(3-(adamantan-1-yl)-4-methoxyphenyl)naphthalen-2-yl)methanol], the antimicrobial activity result with S. aureus strain MW2 is listed as “eliminated”.

For the compound `O=C(O)c1ccc2cc(-c3ccc(O)c(Cc4ccccc4)c3)ccc2c1` [Analog 9, 6-(3-benzyl-4-hydroxyphenyl)-2-naphthoic acid], the “fold decrease in antimicrobial activity (fold higher MIC) vs. parent compound CD437” value in the series with S. aureus strain MW2 (MRSA MW2) is 2 fold. Further, the figures for the MIC in the series on S. aureus strain MW2 (setting [4]) and with MRSA MW2 persisters were 2 mg/L (≈ 5.64 µM) and 16 mg/L (≈ 45.1 µM), respectively. Further, the hemolytic activity result in the series on human erythrocytes is given as “similar”. Also, the hepatotoxicity result with rat primary hepatocytes is “similar”.

As to `O=C(O)c1ccc2cc(-c3cc(C45CC6CC(CC(C6)C4)C5)ccc3O)ccc2c1` [Analog 10, 6-(5-(adamantan-1-yl)-2-hydroxyphenyl)-2-naphthoic acid], the “fold decrease in antimicrobial activity (fold higher MIC) vs. parent compound CD437” value in the series with S. aureus strain MW2 (MRSA MW2) is listed as more than 30 fold. Also, the MIC with S. aureus strain MW2 (setting [4]) amounted to 32 mg/L (≈ 80.3 µM).

`O=C(O)c1cc(O)c2cc(-c3ccc(O)c(C45CC6CC(CC(C6)C4)C5)c3)ccc2c1` [Analog 11, 6-(3-(adamantan-1-yl)-4-hydroxyphenyl)-4-hydroxy-2-naphthoic acid]: in the series on S. aureus strain MW2 (MRSA MW2), the “fold decrease in antimicrobial activity (fold higher MIC) vs. parent compound CD437” value amounted to 4 fold. Also, the MIC with S. aureus strain MW2 (setting [4]) was 4 mg/L (≈ 9.65 µM).

Regarding `O=C(O)c1cc(O)c2cc(-c3cc(C45CC6CC(CC(C6)C4)C5)ccc3O)ccc2c1` [Analog 13, 6-(5-(adamantan-1-yl)-2-hydroxyphenyl)-4-hydroxy-2-naphthoic acid], the “fold increase in antimicrobial activity vs. Analog 10” value in the series with S. aureus strain MW2 (MRSA MW2, relative to Analog 10) worked out at 8 fold. The MIC in the series on S. aureus strain MW2 (setting [4]) was 4 mg/L (≈ 9.65 µM).

For the compound `O=C(O)c1cc(O)c2cc(-c3ccc(O)c(C45CC6CC(CC(C6)C4)C5)c3)cc(O)c2c1` [Analog 14, 6-(3-(adamantan-1-yl)-4-hydroxyphenyl)-4,8-dihydroxy-2-naphthoic acid], the “fold decrease in antimicrobial activity vs. Analog 11” value in the series on S. aureus strain MW2 (MRSA MW2, another decrease relative to Analog 11) was 4 fold. In addition, in the series on S. aureus strain MW2 (setting [4]), the MIC was determined as 16 mg/L (≈ 37.2 µM).

On to `O=C(O)c1cc(O)c2cc(-c3cc(C45CC6CC(CC(C6)C4)C5)ccc3O)cc(O)c2c1` [Analog 16, 6-(5-(adamantan-1-yl)-2-hydroxyphenyl)-4,8-dihydroxy-2-naphthoic acid], for which the MIC with S. aureus strain MW2 (setting [4]) came out at 8 mg/L (≈ 18.6 µM).

Take `O=C(O)c1ccc2cc(-c3ccc(O)c(C45CC6CC(CC(C6)C4)C5)c3)ccc2c1` [CD437, reference compound]: the MIC in the series on S. aureus strain MW2 amounted to 1 mg/L (≈ 2.51 µM). Moreover, in series [1], the growth inhibition entry is recorded as “inhibit the growth”. Further, the morphology of bacteria entry in series [2] was “altered and elongated”.

Take `COc1ccc(-c2ccc3cc(C(=O)O)ccc3c2)cc1C12CC3CC(CC(C3)C1)C2` [adapalene]: in series [1], the growth inhibition entry is “not”.

Turning to `O=C(O)/C=C/c1ccc(-c2ccc(O)c(C34CC5CC(CC(C5)C3)C4)c2)cc1` [adarotene], the excretion result in series [3] is reported as “excreted rapidly”.

As for `CN[C@H](CC(C)C)C(=O)N[C@H]1C(=O)N[C@@H](CC(N)=O)C(=O)N[C@H]2C(=O)N[C@H]3C(=O)N[C@H](C(=O)N[C@H](C(=O)O)c4cc(O)cc(O)c4-c4cc3ccc4O)[C@H](O)c3ccc(c(Cl)c3)Oc3cc2cc(c3O[C@@H]2O[C@H](CO)[C@@H](O)[C@H](O)[C@H]2O[C@H]2C[C@](C)(N)[C@H](O)[C@H](C)O2)Oc2ccc(cc2Cl)[C@H]1O` [vancomycin, reference compound], in the series “Maximum tolerated dose”, the “alanine aminotransferase (ALT) vs. control” value is “lack of significant differences” and the “blood urea nitrogen (BUN) vs. control” value is on record as “lack of significant differences”.
